Results: ChEMBL document CHEMBL1147807, “Identification of 2-acylaminothiophene-3-carboxamides as potent inhibitors of FLT3” (Bioorg Med Chem Lett, 2006)

Key:
[1] = test system: MV4-11; experiment: Antiproliferative activity against human MV4-11 cells
[2] = target: T1, Receptor-type tyrosine-protein kinase FLT3 (Homo sapiens, UniProt P36888); experiment: Inhibition of FLT3
T1 sequence (P36888 whole entry): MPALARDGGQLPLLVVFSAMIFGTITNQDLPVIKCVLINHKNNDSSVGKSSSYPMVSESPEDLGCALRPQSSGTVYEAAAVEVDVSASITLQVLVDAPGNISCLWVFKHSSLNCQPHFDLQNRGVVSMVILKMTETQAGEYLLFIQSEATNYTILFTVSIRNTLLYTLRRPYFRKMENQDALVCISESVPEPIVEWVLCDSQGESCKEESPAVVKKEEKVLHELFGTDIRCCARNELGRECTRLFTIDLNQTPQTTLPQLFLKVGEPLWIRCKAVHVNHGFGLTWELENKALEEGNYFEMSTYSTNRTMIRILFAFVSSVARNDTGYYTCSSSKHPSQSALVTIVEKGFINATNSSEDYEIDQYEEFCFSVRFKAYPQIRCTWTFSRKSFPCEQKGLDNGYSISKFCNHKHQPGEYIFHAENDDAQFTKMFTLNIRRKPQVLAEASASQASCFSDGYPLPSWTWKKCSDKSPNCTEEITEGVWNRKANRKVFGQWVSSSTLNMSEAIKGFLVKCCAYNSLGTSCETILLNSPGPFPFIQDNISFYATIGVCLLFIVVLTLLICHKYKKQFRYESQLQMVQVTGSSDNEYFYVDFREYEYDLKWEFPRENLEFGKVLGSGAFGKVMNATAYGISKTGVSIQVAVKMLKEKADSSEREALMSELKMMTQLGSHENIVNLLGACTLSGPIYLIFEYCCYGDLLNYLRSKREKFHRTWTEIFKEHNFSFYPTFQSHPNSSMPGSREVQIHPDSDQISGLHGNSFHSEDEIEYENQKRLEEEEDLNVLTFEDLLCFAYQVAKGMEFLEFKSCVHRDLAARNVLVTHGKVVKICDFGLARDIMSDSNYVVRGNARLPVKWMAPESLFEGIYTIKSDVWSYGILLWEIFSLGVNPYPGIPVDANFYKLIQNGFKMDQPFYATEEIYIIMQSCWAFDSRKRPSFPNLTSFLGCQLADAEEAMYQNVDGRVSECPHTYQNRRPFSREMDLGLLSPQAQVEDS

SMILES	IC50 [1]	IC50 [2]
COc1ccc(C(=O)Nc2sc3c(c2C(N)=O)CCC3)cc1OC	410 nM	
Cc1ccc(/C=C/C(=O)Nc2sc3c(c2C(N)=O)CCCC3)o1	10000 nM	
CC(=O)Nc1sc2c(c1C(N)=O)CCCC2		2000 nM
NC(=O)c1c(NC(=O)/C=C/c2ccccc2)sc2c1CCCC2	530 nM	
NC(=O)c1c(NC(=O)COc2ccccc2)sc2c1CCCC2		> 10000 nM
CC(C)(C)c1ccc(C(=O)Nc2sc3c(c2C(N)=O)CCCC3)cc1	1600 nM	
NC(=O)c1c(NC(=O)/C=C/c2ccco2)sc2c1CCCC2	480 nM	
NC(=O)c1c(NC(=O)c2ccc(Oc3ccccc3)cc2)sc2c1CCCC2		> 10000 nM
NC(=O)c1c(NC(=O)c2cccnc2)sc2c1CCCC2	2000 nM	1100 nM
COc1cc(OC)cc(C(=O)Nc2sc3c(c2C(N)=O)CCCC3)c1	> 10000 nM	
COc1ccccc1C(=O)Nc1sc2c(c1C(N)=O)CCCC2		> 10000 nM
NC(=O)c1c(NC(=O)c2ccc(-c3ccccc3)cc2)sc2c1CCCC2		> 10000 nM
Cc1ccc(C(=O)Nc2sc3c(c2C(N)=O)CCCC3)cc1	450 nM	
NC(=O)c1c(NC(=O)c2ccncc2)sc2c1CCCC2	2100 nM	110 nM
NC(=O)c1c(NC(=O)c2ccccc2)sc2c1CCCC2	> 10000 nM	360 nM
NC(=O)c1c(NC(=O)CSc2ccccc2)sc2c1CCCC2	3800 nM	> 10000 nM
COc1ccc(/C=C/C(=O)Nc2sc3c(c2C(N)=O)CCCC3)cc1	1800 nM	250 nM
COc1cccc(C(=O)Nc2sc3c(c2C(N)=O)CCCC3)c1	1500 nM	
NC(=O)c1c(NC(=O)c2ccc3c(c2)OCO3)sc2c1CCCC2	890 nM	
NC(=O)c1c(NC(=O)C2CC2)sc2c1CCCC2	1200 nM	1300 nM

SMILES	IC50 [1]	IC50 [2]
COc1ccc(C(=O)Nc2sc3c(c2C(N)=O)CCCC3)cc1	1300 nM	
NC(=O)c1c(NC(=O)Cc2ccccc2)sc2c1CCCC2	> 10000 nM	
NC(=O)c1c(NC(=O)c2cccc(Cl)c2)sc2c1CCCC2	2200 nM	
NC(=O)c1c(NC(=O)c2ccccn2)sc2c1CCCC2	350 nM	
NC(=O)c1c(NC(=O)c2ccc(Cl)cc2)sc2c1CCCC2	1400 nM	
COc1ccc(CCC(=O)Nc2sc3c(c2C(N)=O)CCCC3)cc1	> 10000 nM	
Cc1ccc(C(=O)Nc2sc3c(c2C(N)=O)CCCC3)cc1C	710 nM	
CC(C)C(=O)Nc1sc2c(c1C(N)=O)CCCC2		> 10000 nM
CC(=O)c1ccc(C(=O)Nc2sc3c(c2C(N)=O)CCCC3)cc1	1800 nM	
COc1cc(C(=O)Nc2sc3c(c2C(N)=O)CCCC3)cc(OC)c1OC		> 10000 nM
Cc1cccc(C(=O)Nc2sc3c(c2C(N)=O)CCCC3)c1	3200 nM	
COc1ccc(/C=C/C(=O)Nc2sc3c(c2C(N)=O)CCCC3)cc1OC	2000 nM	
COc1ccc(C(=O)Nc2sc(C)c(C)c2C(N)=O)cc1OC	330 nM	
NC(=O)c1c(NC(=O)c2ccco2)sc2c1CCCC2	1500 nM	
NC(=O)c1c(NC(=O)c2ccc(Br)cc2)sc2c1CCCC2	1500 nM	
COc1ccc(C(=O)Nc2sc3c(c2C(N)=O)CCCCCC3)cc1OC		> 100000 nM
CC(C)c1ccc(/C=C/C(=O)Nc2sc3c(c2C(N)=O)CCCC3)cc1	2700 nM	
COc1ccc(C(=O)Nc2sccc2C(N)=O)cc1OC	2400 nM	
NC(=O)c1c(NC(=O)c2ccccc2Cl)sc2c1CCCC2		> 10000 nM
NC(=O)c1c(NC(=O)C2CCCCC2)sc2c1CCCC2		> 10000 nM
